According to article PMC3074252 (Journal of medicinal chemistry, 2011):
Like-named read-outs stand apart in the source and are kept apart here.

Experiments:
[1] = mice, 50 mg/kg peritoneally, 1 h after injection
[2] = Sprague-Dawley rats, in PBS
in vivo = conditions: Sprague-Dawley, rat, iv, 1 mg/kg
G85R SOD1 = assay: High content G85R-SOD1 aggregation assay; type: cell-based
[3] = system: 68 in vitro radioligand binding assays; conditions: 10 μM, in duplicate, 68 assays
[4] = system: PC12 cells expressing G93A SOD1-YFP; type: cell-based

Structure (SMILES)	activity in cytotoxicity protection assay [4]	also measured
O=C1CC(=O)N(CCc2ccccc2)C(=O)N1CCc1ccccc1 [Compound 7, 1,3-Diphenethylpyrimidine-2,4,6(1H,3H,5H)-trione]	–	blood level [1]: 150 µM; brain level [1]: 50 µM; AUC/Dose ([2]; 1 mg/kg i.v.): 126 ng · h/mL/dose; AUC/Dose ([2]; 1 mg/kg p.o.): 124 ng · h/mL/dose; clearance (in vivo): 133 mL/min/kg; reduction in aggregates, fluorescence images (G85R SOD1; cells treated with MG132 plus 10 μM compound): significant reduction in aggregates; reduction in the number of aggregates of G85R SOD1 (G85R SOD1; dose dependence): concentration dependent; inhibitory effect across profiling screen [3]: No significant inhibitory effect
O=C1C(=O)N(CCc2ccccc2)C(=O)N1CCc1ccccc1 [Compound 49, 1,3-Diphenethylimidazolidine-2,4,5-trione]	none was active	–
CCCCN1C(=O)CC(=O)NC1=O [Compound 1, 1-Butylpyrimidine-2,4,6(1H,3H,5H)-trione]	no activity	–
O=C1CC(=O)N(CCN2CCOCC2)C(=O)N1CCc1ccc(F)cc1 [Compound 34, 1-(4-Fluorophenethyl)-3-(2-morpholinoethyl)pyrimidine-2,4,6(1H,3H,5H)-trione]	inactive	–
O=C1CC(=O)N(C2CCCCC2)C(=O)N1 [Compound 2, 1-Cyclohexylpyrimidine-2,4,6(1H,3H,5H)-trione]	no activity	–
O=C1C(=O)N(C2CCCCC2)C(=O)N1C1CCCCC1 [Compound 51, 1,3-Dicyclohexylimidazolidine-2,4,5-trione]	none was active	–
O=c1cc(Cl)n(CCc2ccccc2)c(=O)n1CCc1ccccc1 [Compound 46, 6-chloro-1,3-diphenethylpyrimidine-2,4(1H,3H)-dione]	inactive	–
O=C1CCC(=O)N(CCc2ccccc2)C(=O)N1CCc1ccccc1 [Compound 52, 1,3-Diphenethyl-1,3-diazepane-2,4,7-trione]	none was active	–
COc1cc(=O)n(CCc2ccccc2)c(=O)n1CCc1ccccc1 [Compound 47, 6-methoxy-1,3-diphenethylpyrimidine-2,4(1H,3H)-dione]	inactive	–
